Values of other authors as cited in patent US20220305055A1, “PHARMACEUTICAL CO[…]” (Zincum, Inc., priority 2016, published 2022).

Tested on: diabetic rats
Conditions: zinc chloride administered

SMILES: [Cl-].[Cl-].[Zn+2] [zinc chloride]
- hyperglycemia: hyperglycemia improved
